This is an account of results in US10603345B2, “Pharmaceutical composition for treating respiratory disease” (Kunming Institute of Botany, The Chinese Academy of Sciences, priority 2015, dated 2020).

Format in all cases: in vivo
Assay [1] concerns IL-4 in BALF of asthma model mouse. Put plainly: Effect on IL-4 in BALF of asthma model mouse. The following applies: ELISA, ig 7 d, dose/kg: dexamethasone 2.0 mg, Test group 1 50, 2 25, picrinine 5.0, vallesamine 3.0, scholaricine 3.0, 19-epi-scholaricine 3.5 mg, x ± SD. How it is done: (§1) Animal source: 25˜30 g male ICR mouse, from laboratory animal department of Kunming Medical University, License No. SCXK (Dian) 2011-0004.
(§2) Method and route: ovalbumin (OVA) was used to induce mouse asthma model, and after intragastrical administration for 7 d at a dose of 20 mL/kg, the animal was sacrificed at the eighth day.
(§3) Test group 1: picrinine, vallesamine, scholaricine and 19-epischolaricine prepared in Example 1.7 were homogeneously mixed at different ratios by weight (50 mg/kg), Test group 2: the alkaloid composition prepared in Example 1.4 (25 mg/kg). […]
(§4) Sample preparation: all the samples were prepared by using 0.5% carboxymethylcellulose sodium (0.5% CMC-Na).
Group and dose: in Test group 1, the ratio of picrinine, vallesamine, scholaricine and 19-epischolaricine by weight was 25:18:15:3, and the other groups and doses thereof were as described in Example 11. […]

Assay [2] concerns WBC count and eosinophil percentage in BALF of asthma model mouse. Briefly: Effect on WBC count and eosinophil percentage in BALF of asthma model mouse. The following applies: OVA-induced asthma mouse, ig 7 d, dose/kg: dexamethasone 2 mg, Test group 1 50, 2 25, picrinine 5.0, vallesamine 3.0, scholaricine 3.0, 19-epi-scholaricine 3.5 mg, x ± SD. The procedure: as §1, §2, §3, §4
Group and dose: in Test group 1, the ratio of picrinine, vallesamine, scholaricine and 19-epischolaricine by weight was 41:45:28:7, and the other groups and doses thereof were as described in Example 11.
Test index: number of white blood cells (WBCs) and number of eosinophil in bronchoalveolar lavage fluid (BALF) were used as index, and were determined by full-automatic hemocytometer.

Assay [3] has as its system IL-10 in BALF of asthma model mouse. Put plainly: Effect on IL-10 in BALF of asthma model mouse. The following applies: ELISA, ig 7 d, dose/kg: dexamethasone 2.0 mg, Test group 1 50, 2 25, picrinine 5.0, vallesamine 3.0, scholaricine 3.0, 19-epi-scholaricine 3.5 mg, x ± SD. How it is done: as §1, §2, §3, §4
Group and dose: in Test group 1, the ratio of picrinine, vallesamine, scholaricine and 19-epischolaricine by weight was 18:13:14:3, and the other groups and doses thereof were as described in Example 11.
Test index: IL-10 in BALF was used as index, and was determined by enzyme linked immunosorbent assay.
(In general: In an ELISA, binding on a coated surface is turned into a signal by an enzyme label.)

The subject of assay [4] is MDA in serum and homogenate of COPD model mouse. Briefly: Effect on MDA in serum and homogenate of COPD model mouse. The following applies: ig 7 d, dose/kg: dexamethasone 1 mg, Test group 1 50, 2 25, 3 10, picrinine 10, vallesamine 6, scholaricine 7, 19-epi-scholaricine 2 mg, x ± SD. The procedure: as §1
(§5) Method and route: lipopolysaccharide (LPS) plus smoke exposure was used for 30 days to induce mouse chronic obstructive pulmonary disease model; and after intragastrical administration for 7 d at a dose of 20 mL/kg, the animal was sacrificed at the eighth day.
(§6) Picrinine group (10 mg/kg), Vallesamine group (6.0 mg/kg), Scholaricine group (7.0 mg/kg), 19-epischolaricine group (2.0 mg/kg).
as §4
Group and dose: in Test group 1, the ratio of picrinine, vallesamine, scholaricine and 19-epischolaricine by weight was 9:6:5:1, and the other groups and doses thereof were as described in Example 10.
Test index: MDA in serum and homogenate was used as index, and was determined by thibabituric acid method.

Assay [5] has as its system MDA in serum and BALF of asthma model mouse. Put plainly: Effect on MDA in serum and BALF of asthma model mouse. The following applies: ig 7 d, dose/kg: dexamethasone 2.0 mg, Test group 1 50, 2 25, picrinine 5.0, vallesamine 3.0, scholaricine 3.0, 19-epi-scholaricine 3.5 mg, x ± SD. The procedure: as §1, §2, §3, §4
Group and dose: in Test group 1, the ratio of picrinine, vallesamine, scholaricine and 19-epischolaricine by weight was 8:6:5:1, and the other groups and doses thereof were as described in Example 11.
Test index: MDA in serum and BALF was used as index, and was determined by thiobarbituric acid method.

Assay [6] relates to CRP in serum in COPD model mouse. Put plainly: Effect on CRP in serum in COPD model mouse. The following applies: ELISA, ig 7 d, dose/kg: dexamethasone 1 mg, Test group 1 50, 2 25, 3 10, picrinine 10, vallesamine 6, scholaricine 7, 19-epi-scholaricine 2 mg, x ± SD. The procedure:
as §1, §5, §6, §4
Group and dose: in Test group 1, the ratio of picrinine, vallesamine, scholaricine and 19-epischolaricine by weight was 25:19:20:4, and the other groups and doses thereof were as described in Example 10.
Test index: CRP in serum was used as index, and was determined by enzyme linked immunosorbent assay.

For assay [7], the system named is white blood cell count and classification in BALF of COPD model mouse. Put plainly: Effect on white blood cell count and classification in BALF of COPD model mouse. The following applies: COPD mouse (LPS plus smoke exposure 30 days), ig 7 d, dose/kg: dexamethasone 1 mg, Test group 1 50, 2 25, 3 10, picrinine 10, vallesamine 6, scholaricine 7, 19-epi-scholaricine 2 mg, x ± SD. How it is done:
as §1, §5, §6, §4
Group and dose: in Test group 1, the ratio of picrinine, vallesamine, scholaricine and 19-epischolaricine by weight was 48:40:29:10, and the other groups and doses thereof were as described in Example 10.
Test index: total number of white blood cells and inflammatory cell classification in bronchoalveolar lavage fluid (BALF) were used as indexes, and were determined by full-automatic hemocytometer.

Assay [8] has as its system IL-6 in serum of COPD model mouse. Briefly: Effect on IL-6 in serum of COPD model mouse. The following applies: ELISA, ig 7 d, dose/kg: dexamethasone 1 mg, Test group 1 50, 2 25, 3 10, picrinine 10, vallesamine 6, scholaricine 7, 19-epi-scholaricine 2 mg, x ± SD. How it is done:
as §1, §5, §6, §4
Group and dose: in Test group 1, the ratio of picrinine, vallesamine, scholaricine and 19-epischolaricine by weight was 38:30:27:7, and the other groups and doses thereof were as described in Example 10.
Test index: IL-6 in serum was used as index, and was determined by enzyme linked immunosorbent assay.

The test system of assay [9] is SOD in serum and homogenate of COPD model mouse. Put plainly: Effect on SOD in serum and homogenate of COPD model mouse. The following applies: ig 7 d, dose/kg: dexamethasone 1 mg, Test group 1 50, 2 25, 3 10, picrinine 10, vallesamine 6, scholaricine 7, 19-epi-scholaricine 2 mg, x ± SD. How it is done:
as §1, §5, §6, §4
Group and dose: in Test group 1, the ratio of picrinine, vallesamine, scholaricine and 19-epischolaricine by weight was 16:11:12:3, and the other groups and doses thereof were as described in Example 10.
Test index: SOD in serum and lung homogenate was used as index, and was determined by xanthine oxidase method.

Assay [10] deals with SOD in serum and BALF of asthma model mouse. Put plainly: Effect on SOD in serum and BALF of asthma model mouse. The following applies: ig 7 d, dose/kg: dexamethasone 2.0 mg, Test group 1 50, 2 25, picrinine 5.0, vallesamine 3.0, scholaricine 3.0, 19-epi-scholaricine 3.5 mg, x ± SD. The procedure:
as §1, §2, §3, §4
Group and dose: in Test group 1, the ratio of picrinine, vallesamine, scholaricine and 19-epischolaricine by weight was 12:10:9:2, and the other groups and doses thereof were as described in Example 11.
Test index: SOD in serum and BALF was used as index, and was determined by xanthine oxidase method.

Assay [11] relates to Eotaxin in serum of asthma model mouse. Briefly: Effect on Eotaxin in serum of asthma model mouse. The following applies: ELISA, ig 7 d, dose/kg: dexamethasone 2.0 mg, Test group 1 50, 2 25, picrinine 5.0, vallesamine 3.0, scholaricine 3.0, 19-epi-scholaricine 3.5 mg, x ± SD. How it is done:
as §1, §2, §3, §4
Group and dose: in Test group 1, the ratio of picrinine, vallesamine, scholaricine and 19-epischolaricine by weight was 37:42:30:8, and the other groups and doses thereof were as described in Example 11.
Test index: eosinophil chemotactic factor (Eotaxin) in serum was used as index, and was determined by enzyme linked immunosorbent assay.

In assay [12] the test system is IgE in serum of asthma model mouse. Put plainly: Effect on IgE in serum of asthma model mouse. The following applies: ELISA, ig 7 d, dose/kg: dexamethasone 2.0 mg, Test group 1 50, 2 25, picrinine 5.0, vallesamine 3.0, scholaricine 3.0, 19-epi-scholaricine 3.5 mg, x ± SD. How it is done: as §1, §2, §3, §4
Group and dose: In Test group 1, the ratio of picrinine, vallesamine, scholaricine and 19-epischolaricine by weight was 30:33:27:6, and the other groups and doses thereof were as described in Example 11.
Test index: immunoglobulin IgE in serum was used as index, and was determined by enzyme linked immunosorbent assay.

For the compound `C[C@@H]1C[C@H]2[C@@H]3CCC4=CC(=O)C=C[C@]4(C)[C@@]3(F)[C@@H](O)C[C@]2(C)[C@@]1(O)C(=O)CO` [dexamethasone, reference compound], the IL-4 in assay [1] is 9.96 ± 4.03 pg/mL. Further, in assay [2], the Eosinophil percentage turned out to be 4.32 ± 1.12 % and the “Number of WBCs” value was 0.50 ± 0.17 ×10^9/L. For the same compound, the IL-10 in assay [3] came out at 17.45 ± 5.60 pg/mL. In addition, the “MDA Homogenate” value in assay [4] (lung homogenate) is on record as 6.23 ± 0.60 nmol/mL. Further, in assay [4] (serum), the “MDA Serum” value came to 14.04 ± 3.64 nmol/mL. Besides, the MDA lavage fluid in assay [5] (BALF) was 2.17 ± .17 nmol/mL. This compound also showed an MDA Serum in [5] (serum) of 10.99 ± 2.38 nmol/mL. Besides, the CRP in assay [6] is reported as 22.3 ± 2.0 pg/mL. Also, in assay [7], the Leukocyte number is 1.1 ± 0.5 ×10^5/mL and the Neutrophil number is on record as 0.53 ± 0.50 ×10^5/mL. The same compound returned an IL-6 in assay [8] of 22.0 ± 2.0 pg/mL. For the same compound, the SOD homogenate in [9] (lung homogenate) is 63.92 ± 5.84 U/mL. Besides, in assay [9] (serum), the “SOD Serum” value came to 86.85 ± 9.48 U/mL. The compound further gave an SOD lavage fluid in [10] (BALF) of 76.57 ± 12.52 U/mL. Moreover, in [10] (serum), the SOD Serum is 74.83 ± 8.43 U/mL. Also, the Eotaxin in assay [11] is recorded as 7.87 ± 0.45 pg/mL. Moreover, the IgE in [12] is reported as 3.23 ± 0.53 g μg/mL.
